Experimental data: ChEMBL document CHEMBL4145608, “Dehydrodiconiferyl Alcohol Inhibits Osteoclast Differentiation and Ovariectomy-Induced Bone Loss through Acting as an Estrogen Receptor Agonist” (J Nat Prod, 2018)
Activity calls are given as the source filed them. The calls are words filed in the database; no cut-off is given here.

Assays:
RAW264.7 [1] = assay: Inhibition of NF-kappaB/p38 MAPK signaling pathway in mouse RAW264.7 cells assessed as reduction in RANKL-induced cathepsin K mRNA level after 24 hrs by qRT-PCR method; format: cell-based
RAW264.7 [2] = assay: Inhibition of NF-kappaB/p38 MAPK signaling pathway in mouse RAW264.7 cells assessed as reduction in RANKL-induced c-Fos mRNA level after 24 hrs by qRT-PCR method; format: cell-based
RAW264.7 [3] = assay: Inhibition of NF-kappaB/p38 MAPK signaling pathway in mouse RAW264.7 cells assessed as reduction in RANKL-induced c-Fos protein expression level after 24 hrs by Western blot method; format: cell-based
RAW264.7 [4] = assay: Inhibition of RANKL-induced osteoclast differentiation in mouse RAW264.7 cells assessed as decrease in TRAP mRNA level at 20 uM after 24 hrs in presence of ERalpha antagonist MPP by qRT-PCR method; format: functional, cell-based
[5] = target: T1, Estrogen receptor (Mus musculus) (UniProt P19785); assay: Induction of estrogen receptor-mediated AMPKalpha1 activation in mouse RAW264.7 cells at 20 uM in presence of PKA inhibitor H89; format: cell-based
T1 sequence (whole entry): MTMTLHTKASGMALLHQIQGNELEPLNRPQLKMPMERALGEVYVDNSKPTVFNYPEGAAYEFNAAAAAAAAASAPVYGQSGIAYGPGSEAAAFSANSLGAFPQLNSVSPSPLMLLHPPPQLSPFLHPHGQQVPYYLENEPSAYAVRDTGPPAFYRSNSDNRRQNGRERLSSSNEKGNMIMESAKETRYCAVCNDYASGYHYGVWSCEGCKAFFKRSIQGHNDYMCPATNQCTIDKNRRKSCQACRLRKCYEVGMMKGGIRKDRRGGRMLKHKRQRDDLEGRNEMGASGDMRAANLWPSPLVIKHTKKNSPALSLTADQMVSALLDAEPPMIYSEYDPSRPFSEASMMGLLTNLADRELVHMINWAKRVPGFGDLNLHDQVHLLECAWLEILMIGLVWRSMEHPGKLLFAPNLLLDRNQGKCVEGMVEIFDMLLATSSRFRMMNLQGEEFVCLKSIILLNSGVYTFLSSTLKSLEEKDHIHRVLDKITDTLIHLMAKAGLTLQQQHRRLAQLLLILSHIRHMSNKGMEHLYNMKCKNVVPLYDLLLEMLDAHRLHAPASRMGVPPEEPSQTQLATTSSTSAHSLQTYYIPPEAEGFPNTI

RAW264.7 [6] = assay: Inhibition of RANKL-induced osteoclast differentiation in mouse RAW264.7 cells assessed as decrease in TRAP mRNA level at 20 uM after 24 hrs in presence of ERbeta antagonist PHTPP by qRT-PCR method; format: functional, cell-based
Mus musculus [7] = assay: Anti-osteoporotic activity in Balb/c mouse assessed as decrease in OVX-induced structure model index in femur at 25 to 100 mg/kg, ip administered for 4 weeks daily by microcomputed tomography; format: functional, organism-based
Mus musculus [8] = assay: Anti-osteoporotic activity in Balb/c mouse assessed as inhibition of OVX-mediated decrease in bone marrow density in femur at 25 to 100 mg/kg, ip administered for 4 weeks daily by microcomputed tomography; format: functional, organism-based
RAW264.7 [9] = assay: Inhibition of RANKL-induced osteoclast differentiation in mouse RAW264.7 cells assessed as decrease in TRAP activity at 20 uM after 5 days in presence of ERalpha antagonist MPP by microscopy; format: functional, cell-based
RAW264.7 [10] = assay: Inhibition of RANKL-induced osteoclast differentiation in mouse RAW264.7 cells assessed as decrease in size of TRAP-positive multinucleated cells at 20 uM after 5 days in presence of ERbeta antagonist PHTPP by microscopy; format: functional, cell-based
[11] = target: T1, Estrogen receptor (Mus musculus); assay: Induction of estrogen receptor-mediated AMPKalpha1 activation in mouse RAW264.7 cells at 20 uM in presence of CAMKKbeta inhibitor STO609; format: cell-based
Mus musculus [12] = assay: Anti-osteoporotic activity in Balb/c mouse assessed as inhibition of OVX-induced serum NTx level at 25 to 100 mg/kg, ip administered for 4 weeks daily by ELISA; format: functional, organism-based
RAW264.7 [13] = assay: Inhibition of NF-kappaB/p38 MAPK signaling pathway in mouse RAW264.7 cells assessed as reduction in RANKL-induced TRAP mRNA level after 24 hrs by qRT-PCR method; format: cell-based
Estrogen receptor = target: T2, Estrogen receptor (Homo sapiens, UniProt P03372); assay: Inhibition of fluoromone binding to recombinant human full length untagged ERalpha expressed in insect cells after 2 hrs by fluorescence polarization assay
T2 sequence (P03372 whole entry): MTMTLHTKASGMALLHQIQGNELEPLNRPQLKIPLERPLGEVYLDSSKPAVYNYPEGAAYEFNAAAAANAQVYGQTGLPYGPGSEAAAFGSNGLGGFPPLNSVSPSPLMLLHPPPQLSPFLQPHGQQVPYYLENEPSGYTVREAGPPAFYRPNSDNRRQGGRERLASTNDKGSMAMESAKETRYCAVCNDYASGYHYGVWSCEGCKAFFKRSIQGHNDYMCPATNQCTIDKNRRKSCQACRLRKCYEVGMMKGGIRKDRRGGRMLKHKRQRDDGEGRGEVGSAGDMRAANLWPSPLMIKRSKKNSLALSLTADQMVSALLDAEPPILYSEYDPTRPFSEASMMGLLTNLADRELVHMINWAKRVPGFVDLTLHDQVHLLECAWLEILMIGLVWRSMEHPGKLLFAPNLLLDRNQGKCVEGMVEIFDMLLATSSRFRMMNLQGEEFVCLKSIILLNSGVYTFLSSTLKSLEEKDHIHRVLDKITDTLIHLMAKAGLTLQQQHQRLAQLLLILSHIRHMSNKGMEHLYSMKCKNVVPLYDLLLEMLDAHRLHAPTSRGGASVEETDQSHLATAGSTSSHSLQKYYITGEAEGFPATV

RAW264.7 [14] = assay: Inhibition of RANKL-induced osteoclast differentiation in mouse RAW264.7 cells harboring ERalpha siRNA assessed as decrease in number of TRAP-positive multinucleated cells at 20 uM after 5 days by microscopy; format: functional, cell-based
RAW264.7 [15] = assay: Inhibition of RANKL-induced osteoclast differentiation in mouse RAW264.7 cells assessed as decrease in number of TRAP-positive multinucleated cells after 5 days by microscopy; format: functional, cell-based
RAW264.7 [16] = assay: Inhibition of RANKL-induced osteoclast differentiation in mouse RAW264.7 cells assessed as decrease in c-Fos mRNA level at 20 uM after 24 hrs in presence of ERbeta antagonist PHTPP by qRT-PCR method; format: functional, cell-based
[17] = target: T3, Estrogen receptor (Homo sapiens) (UniProt P03372); assay: Agonist activity at estrogen receptor (unknown origin) expressed in mouse RAW264.7 cells after 6 hrs by luciferase reporter gene assay; format: cell-based
T3 sequence (whole entry): T2 sequence (P03372 whole entry)

Mus musculus [18] = assay: Anti-osteoporotic activity in ip dosed OVX-induced bone loss in femur of Balb/c mouse administered for 4 weeks daily by microcomputed tomography; format: functional, organism-based
[19] = target: 5'-AMP-activated protein kinase catalytic subunit alpha-1 (Mus musculus) (UniProt Q5EG47); assay: Activation of AMPKalpha1 in mouse RAW264.7 cells assessed as increase in AMPK phosphorylation at 10 to 40 uM after 24 hrs by Western blot method; format: cell-based
Chain of 5'-AMP-activated protein kinase catalytic subunit alpha-1 (Mus musculus) (Q5EG47 whole entry): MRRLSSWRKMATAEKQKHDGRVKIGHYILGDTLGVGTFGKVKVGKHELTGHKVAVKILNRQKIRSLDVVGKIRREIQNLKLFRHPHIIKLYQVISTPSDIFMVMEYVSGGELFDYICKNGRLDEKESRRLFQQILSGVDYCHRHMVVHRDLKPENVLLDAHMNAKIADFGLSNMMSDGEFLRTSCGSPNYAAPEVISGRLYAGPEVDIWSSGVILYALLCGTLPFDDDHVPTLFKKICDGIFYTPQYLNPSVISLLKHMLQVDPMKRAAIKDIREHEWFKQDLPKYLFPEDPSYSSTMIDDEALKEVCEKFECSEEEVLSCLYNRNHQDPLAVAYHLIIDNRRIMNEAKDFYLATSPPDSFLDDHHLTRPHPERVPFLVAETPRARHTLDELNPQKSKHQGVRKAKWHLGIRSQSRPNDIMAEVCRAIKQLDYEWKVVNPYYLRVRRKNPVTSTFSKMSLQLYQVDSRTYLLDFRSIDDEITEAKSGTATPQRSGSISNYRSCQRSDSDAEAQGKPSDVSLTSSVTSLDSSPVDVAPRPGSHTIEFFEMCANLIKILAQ

Q: Which results are given for `COc1cc(C2Oc3c(OC)cc(/C=C/CO)cc3C2CO)ccc1O` (stereo not given)?
A: inhibition (RAW264.7 [1]): Dose-dependent effect; inhibition (RAW264.7 [2]): Dose-dependent effect; inhibition (RAW264.7 [3]): Dose-dependent effect; inhibition (RAW264.7 [4]): inactive; Activity [5]: Active; inhibition (RAW264.7 [6]): Active; Activity (Mus musculus [7]): Active; inhibition (Mus musculus [8]): Active; inhibition (RAW264.7 [9]): inactive; inhibition (RAW264.7 [10]): Active; Activity [11]: Active; inhibition (Mus musculus [12]): Active; inhibition (RAW264.7 [13]): Dose-dependent effect; IC50 (Estrogen receptor): 61.9 nM; inhibition (RAW264.7 [14]): inactive; inhibition (RAW264.7 [15]): Dose-dependent effect; inhibition (RAW264.7 [16]): Active; Activity [17]: Active; Activity (Mus musculus [18]): Dose-dependent effect; Activity [19]: Active
